Experimental data published in article PMC11325084, “Pharmacokinetics and tissue distribution of LN002, a new compound alternative oxidase inhibitor against Cryptosporidium in rats” (Frontiers in Pharmacology, 2024).
Read-outs that look alike come from different tables or passages of the source.

Experiments:
[1] = Stability of LN002 stock solution; type: physicochemical; settings: for Stock solution stability, measured concentration: nominal concentration 1,000 ng/mL, n = 6, mean ± SD
Procedure: LN002 was dissolved in N,N-dimethylformamide, then mixed to make a concentration of 1 mg/mL standard solution, and stored at −20°C. By investigating the low, middle, and high-concentration stability of rat plasma, the liver and intestinal contents in six replicates at different storage conditions, autosampler, short-term, freeze and thaw, long-term stability, and stock solution stability evaluations were conducted.

[2] = Pharmacokinetics of LN002 in rat plasma after single intravenous injection or oral gavage; type: in vivo, Sprague–Dawley (SD) rats; settings: rats; for AUC(0-t): read-out: AUC0–24 h
Procedure: A total of 24 SD rats, half for each sex, were randomly distributed into four groups and used in the plasma PK study. Heparin sodium was used to prevent blood clotting. Groups 1, 2, and 3 were single-dose oral administration groups, and the administered doses were 100, 200, and 400 mg/kg, respectively. The fourth group was a single-dose group, in which the subjects received 1 mg/kg LN002 via tail vein intravenous injection (In the oral administration group, the drugs were dissolved in 0.5% sodium carboxymethylcellulose, whereas those in the intravenous injection group were dissolved in N,N-dimethylformamide). After administration for each group, approximately 200–300 μL of plasma samples were collected from the tail vein at predefined times (0.167, 0.5, 0.75, 1, 2, 3, 4, 6, 8, 12, and 24 h) ([Song et al., 2021a]). Subsequently, these samples were then placed in centrifuge tubes containing heparin sodium, subjected to centrifugation at 5000 rpm for 10 min at 4°C, and the resulting supernatant was collected and stored at −20°C until further analysis. An aliquot of 100 µL of rat plasma was transferred into a 2 mL Eppendorf (EP) tube and precipitated with 300 µL of acetonitrile. The mixture was vortexed for 1 min, then centrifuged at 13,000 rpm at 4°C for 10 min, and passed through a 0.22 μm filter membrane. Final analysis was conducted by injecting 20 µL of supernatant into HPLC. A Shimadzu LC-20A system (Shimadzu Technologies, Kyoto, Japan) equipped with a LabSolutions system (version 5.1) system was used for HPLC analysis. The separation process utilized an ARD-C18 column (250 mm × 4.6 mm, 5 µm) (Zhongpu Technology Co., Ltd., Fuzhou, China). The analytes were detected using a UV detector at 333 nm. The chromatographic conditions used an isocratic mobile phase that combines methanol (solvent A) and deionized water (solvent B) (75:25, v/v), and they were propelled through the column at a constant flow rate of 1 mL/min, ensuring uniform separation. The injection volume was 20 μL. The temperature of the column was set to 40°C. Pharmacokinetic data were obtained via non-compartmental PK analysis of total concentration versus time profiles for plasma using Phoenix WinNonlin 8.2 (Certara, L.P., Princeton, NJ, United States). Statistical analysis and graphing were undertaken using GraphPad Prism 9.5 for Windows (GraphPad Software, Inc., La Jolla, CA, United States).

[3] = both sexes, Sprague-Dawley, rat, iv, plasma, i.v. 1 mg/kg, n = 6, mean ± SD
[4] = both sexes, Sprague-Dawley, rat, plasma, iv, 1 mg/kg, i.v. 1 mg/kg, n = 6, mean ± SD
[5] = both sexes, Sprague-Dawley, rat, plasma, po, 100 mg/kg, oral 100 mg/kg, n = 6, mean ± SD
[6] = both sexes, Sprague-Dawley, rat, plasma, po, 200 mg/kg, oral 200 mg/kg, n = 6, mean ± SD
[7] = both sexes, Sprague-Dawley, rat, plasma, po, 400 mg/kg, oral 400 mg/kg, n = 6, mean ± SD
[8] = both sexes, Sprague-Dawley, rat, plasma, po, 400 mg/kg, oral single dose, range across 100, 200 and 400 mg/kg
[9] = both sexes, Sprague-Dawley, rat, plasma, oral 100 mg/kg, n = 6, mean ± SD
[10] = both sexes, Sprague-Dawley, rat, plasma, oral 200 mg/kg, n = 6, mean ± SD
[11] = both sexes, Sprague-Dawley, rat, plasma, oral 400 mg/kg, n = 6, mean ± SD

With `N#C/C(=C\c1c[nH]nc1-c1ccccc1)c1nn(-c2ccccc2)c(N)c1C#N` [LN002, 5-amino-3-[1-cyano-2-(3-phenyl-4-vinopyrazole))-1-phenyl-4-vinopyrazole] the “Stock solution stability, measured concentration” value ([1]; 15 d) was 0.941 ± 0.091, the “Stock solution stability, measured concentration” value ([1]; 30 d) was 0.924 ± 0.051 and the “Degradation of stock solution (in words)” value ([1]; stock solution, 15 d and 30 d) was “no appreciable degradation”. It also gave a Tmax ([2]; both sexes, Sprague-Dawley, rat, iv, plasma, i.v. 1 mg/kg, n = 6) of 0.75 h, an AUC(0-inf) [2, 3] of 8.65 ± 1.94 µg·h/mL and a clearance [2, 3] of 0.11 L/h/kg. The Vd ([2]; both sexes, Sprague-Dawley, rat, iv, plasma, i.v. 1 mg/kg, n = 6, mean ± SD, read-out: Vd) was 1.69 ± 0.44 L/kg, the Cmax [2, 4] was 2.94 ± 2.16 µg/mL and the half-life [2, 4] was 10.9 ± 6.56 h. The AUC(0-t) ([2]; both sexes, Sprague-Dawley, rat, plasma, iv, 1 mg/kg, plasma, i.v. 1 mg/kg, n = 6, mean ± SD) was 7.02 ± 1.52 µg·h/mL, the Cmax [2, 5] was 0.85 ± 0.19 µg/mL and the half-life [2, 5] was 18 ± 5.82 h. It also gave a bioavailability ([2]; both sexes, Sprague-Dawley, rat, plasma, po, 100 mg/kg, oral 100 mg/kg, read-out: F (oral bioavailability)) of 0.32%, an AUC(0-t) ([2]; both sexes, Sprague-Dawley, rat, plasma, po, 100 mg/kg, plasma, oral 100 mg/kg, n = 6, mean ± SD) of 2.28 ± 0.227 µg·h/mL and a CL/F ([2]; both sexes, Sprague-Dawley, rat, plasma, po, 100 mg/kg, plasma, oral 100 mg/kg, n = 6, mean ± SD, read-out: Cl (Cl/F in text) (converted)) of 26 L/h/kg. The Cmax [2, 6] was 1.67 ± 0.106 µg/mL, the half-life [2, 6] was 18 ± 14.8 h and the bioavailability ([2]; both sexes, Sprague-Dawley, rat, plasma, po, 200 mg/kg, oral 200 mg/kg, read-out: F (oral bioavailability)) was 0.29%. The AUC(0-t) ([2]; both sexes, Sprague-Dawley, rat, plasma, po, 200 mg/kg, plasma, oral 200 mg/kg, n = 6, mean ± SD) was 4.07 ± 0.779 µg·h/mL, the CL/F ([2]; both sexes, Sprague-Dawley, rat, plasma, po, 200 mg/kg, plasma, oral 200 mg/kg, n = 6, mean ± SD, read-out: Cl (Cl/F in text) (converted)) was 31.4 L/h/kg and the Cmax [2, 7] was 4.03 ± 0.41 µg/mL. For the same compound, the half-life [2, 7] was 18.8 ± 11.4 h, the bioavailability ([2]; both sexes, Sprague-Dawley, rat, plasma, po, 400 mg/kg, oral 400 mg/kg, read-out: F (oral bioavailability)) was 0.27% and the Cmax [2, 8] was 0.85 to 4.03 µg/mL. The half-life [2, 8] was 18 to 18.8 h, the bioavailability ([2]; both sexes, Sprague-Dawley, rat, plasma, po, 400 mg/kg, oral single dose, range across 100, 200 and 400 mg/kg, read-out: F) was 0.27 to 0.32% and the AUC(0-t) ([2]; both sexes, Sprague-Dawley, rat, plasma, po, 400 mg/kg, plasma, oral 400 mg/kg, n = 6, mean ± SD) was 7.5 ± 0.507 µg·h/mL. The CL/F ([2]; both sexes, Sprague-Dawley, rat, plasma, po, 400 mg/kg, plasma, oral 400 mg/kg, n = 6, mean ± SD, read-out: Cl (Cl/F in text) (converted)) was 39 L/h/kg, the AUC(0-t) ([2]; both sexes, Sprague-Dawley, rat, plasma, po, 400 mg/kg, plasma, oral single dose, range across 100, 200 and 400 mg/kg) was 2.28 to 7.5 µg·h/mL and the CL/F ([2]; both sexes, Sprague-Dawley, rat, plasma, po, 400 mg/kg, plasma, oral single dose, range across 100, 200 and 400 mg/kg, read-out: Cl/F) was 26 to 39 L/h/kg. It also gave a Tmax ([2]; both sexes, Sprague-Dawley, rat, plasma, oral 100 mg/kg, n = 6) of 1 h, an AUC(0-inf) [2, 9] of 3.53 ± 0.734 µg·h/mL and a Vd/F [2, 9] of 582 ± 270 L/kg. The Tmax ([2]; both sexes, Sprague-Dawley, rat, plasma, oral 200 mg/kg, n = 6) was 1 h, the AUC(0-inf) [2, 10] was 6.03 ± 2.31 µg·h/mL and the Vd/F [2, 10] was 764 ± 314 L/kg. It also gave an AUC(0-inf) [2, 11] of 11.4 µg·h/mL, a Vd/F [2, 11] of 869 ± 279 L/kg and a Tmax ([2]; both sexes, Sprague-Dawley, rat, plasma, oral single dose, across 100, 200 and 400 mg/kg) of 1 h. The “PK behaviour over dose (in words)” value ([2]; oral 100, 200 and 400 mg/kg) was “linear” and the Vd ([2]; plasma, oral single dose, range across 100, 200 and 400 mg/kg) was 581.54 to 869.21 L/kg.
